In US12116344B2, “Crystalline forms of a pharmaceutical compound” (Azafaros B.V., priority 2020, dated 2024):
Entries after “also recorded” stand apart in the source; their conditions may differ. Read-outs that look alike come from different tables or passages of the source.

Assays:
[1] = Stability of the crystalline form (transition of Form 2 into Form 3); type: physicochemical; details: Form 2 transitions into Form 3 above around 30° C. in about 1-5 min, or in solvent for more than 5 min at around 25° C.; listed as Form 3
Procedure: Alternatively, Form 2 transitioned into Form 3 upon equilibration in solvent (e.g. acetone) for more than 5 min at around 25° C.

[2] = biological target: T1, glucosylceramide synthase (GCS) (Homo sapiens, UniProt Q16739); details: stated in words only, no test described; cited from earlier work
T1 sequence (Q16739 1-394): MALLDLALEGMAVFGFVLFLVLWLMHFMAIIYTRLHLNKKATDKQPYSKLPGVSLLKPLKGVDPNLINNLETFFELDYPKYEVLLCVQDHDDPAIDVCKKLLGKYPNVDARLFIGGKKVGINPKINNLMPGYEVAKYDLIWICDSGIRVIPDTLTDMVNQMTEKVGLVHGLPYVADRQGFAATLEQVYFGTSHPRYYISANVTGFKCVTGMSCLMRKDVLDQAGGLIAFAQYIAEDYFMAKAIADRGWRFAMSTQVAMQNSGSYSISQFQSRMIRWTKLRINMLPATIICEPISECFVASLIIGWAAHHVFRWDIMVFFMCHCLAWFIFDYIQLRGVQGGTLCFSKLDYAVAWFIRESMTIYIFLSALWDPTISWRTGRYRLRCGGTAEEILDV

[3] = Body weight of NPC mice, PND 11 to Week 9; type: in vivo
Procedure: Body weights and health status were recorded daily for the first week and later once a week.
(§1) 24 NPC1 (−/−) mice (groups D to I) were treated per oral gavage (10 mL/kg) with AZ-3102-00 from post-natal day 11 (P11) to post-natal-day 70 (P70). Dosing will start at 1.5 mg/kg from P11 to P25, followed by 3 mg/kg from P26 to P70. Control mice included 6 NPC1 (−/−) and 4 NPC (+/−) mice treated with vehicle and 4 NPC (+/+) mice received AZ-3102-00 (groups A to C).
Graph represents the progress of body weights [g] per group measured daily during the first treatment week and weekly thereafter.

[4] = Stability of the test item in vehicle (acidified water); type: physicochemical; details: for Stability in the vehicle: 0.01 to 2 mg/mL
[5] = Dynamic vapour sorption (DVS), hygroscopicity; type: physicochemical; details: listed as Form 3
Procedure: Dynamic vapour sorption (DVS) measurements were performed with an SPS11-100n “Sorptions Prüfsystem” from ProUmid (formerly “Projekt Messtechnik”), August-Nagel-Str. 23, 89079 Ulm (Germany). About 5 mg to 20 mg of sample was put into an aluminum sample pan. Humidity change rates of 5% per hour were used. The applied measurement program can be described as follows:
The sample was placed on an aluminium or platinum holder on top of a microbalance and allowed to equilibrate at a relative humidity (RH) of 50% before starting the pre-defined humidity programs: • (1) 2 h at 50% RH • (2) 50→0% RH (5%/h); 5 h at 0% RH • (3) 0→95% RH (5%/h); 5 h at 95% RH • (4) 95→0% RH (5%/h); 5 h at 0% RH • (5) 0→95% RH (5%/h); 5 h at 95% RH • (6) 95→50% RH (5%/h); 2 h at 50% RH

[6] = Brain:plasma exposure after repeat oral administration PND 11-70; type: in vivo, mice; details: NPC1 (−/−) (Balb/c background), mouse, brain and plasma
Procedure: 24 NPC1 (−/−) mice were treated per oral gavage with AZ-3102-00 from post-natal day 11 (P11) to post-natal-day 70 (P70). Age-matched control mice included 6 NPC (−/−) and 4 NPC (+/−) mice treated with vehicle, and 4 NPC (+/+) mice received AZ-3102-00. After the last treatment on P70, NPC (−/−) mice (n=4 per timepoint) were euthanized by IP injection of 600 mg/kg pentobarbital at the following timepoints: 30 min, 1 h, 2 h, 4 h, 8 h, and 24 h. Control mice were also sacrificed after the last treatment (not time critical). Terminal blood was collected by heart puncture in EDTA coated tubes. Blood plasma was collected by centrifugation (3000×g for 10 minutes at room temperature) and 50 μL plasma aliquots were transferred to 1.5 mL tubes, frozen on dry ice and stored at −80° C.
as §1
After the last treatment on P70, NPC (−/−) mice (n=4 per timepoint; groups D to I) were euthanized by IP injection of 600 mg/kg pentobarbital a the following timepoints: 30 min, 1 h, 2 h, 4 h, 8 h, and 24 h. Control mice (groups A, B and C) were also sacrificed after the last treatment (not time critical).
At 30 min (Group D), 1 h (+/−5 min. Group E), 2 h (+/−5 min. Group F), 4 h (+/−5 min. Group G), 8 h (+/−5 min. Group H), and 24 h (+/−5 min. Group 1) (all time critical) after the last treatment on P70, mice were euthanized by i.p. injection.
(§2) Plasma samples were first mixed for protein precipitation with a solution of acetonitrile containing 50 ng/mL of AZ-3101 (internal standard). After 5 minutes incubation at room temperature, the samples were centrifuged for 5 minutes (13000 rpm, 4° C.) and the supernatant was diluted 10-fold in ultrapure water with 0.1% formic acid.
as §2, with “Brain tissues” for “Plasma samples”, “homogenized in a solution of ultrapure water:methanol (1:1) with 0.1% formic acid (4 mL for each gram of tissue) using a FastPrep 24™ Microtube homogenizer (MP Biomedicals, USA). Brain homogenates were” for “first”, “10” for “50”
Diluted plasma and brain tissue supernatants were injected into an Agilent LC system (Agilent, USA) by an automated sample injector (SIL-30, Shimadzu, USA). […] Data were calibrated and quantified using the Analyst™ data system (AB Sciex, version 1.6.3). […]

[7] = test system: Hexb (−/−) mice; assay: Clinical signs in mice suffering from Sandhoff disease; type: in vivo; details: initial data
Procedure: Mice suffering from Sandhoff disease were administered a therapeutically effective amount of AZ-3102.

Stability of the crystalline form [1]: better stability
Stability in the vehicle ([4]; freezer (≤−15° C.)): at least 3 weeks
Stability in the vehicle ([4]; refrigerated (2-8° C.)): at least 8 days
Stability in the vehicle ([4]; room temperature protected from light): at least 24 hours
Stability in vehicle ([4]; under nitrogen frozen in a freezer (≤−15° C.)): for at least 21 days (3 weeks).
Kp ([6]; female, Female mice, read-out: Brain:Plasma Ratio AUC0-24): 1.37
Kp ([6]; female, Female mice, read-out: Brain:Plasma Ratio Cmax): 0.41
Kp ([6]; male, Male mice, read-out: Brain:Plasma Ratio AUC0-24): 0.95
Kp ([6]; male, Male mice, read-out: Brain:Plasma Ratio Cmax): 0.26
Compound: OC[C@H]1[C@@H](O)[C@H](O)[C@@H](O)CN1CCCCCOCc1ccc(-c2ccccc2)c(F)c1 [AZ-3102]
Potency as inhibitor of GCS [2]: highly potent (nM)
Body weight gain of treated NPC (−/−) mice versus untreated NPC (−/−) mice ([3]; both genders, daily oral gavage P11-P70, PND 11 to Week 9): gained more than the NPC (−/−) untreated animals
General health as indicated by average percent body weight gains ([3]; daily oral gavage P11-P70, 1.5 mg/kg (P11-P25) then 3 mg/kg (P26-P70)): not impeded
Stability in vehicle ([4]; under nitrogen at room temperature protected from light): light for at least 24 h, stored under nitrogen
Hygroscopicity (description) [5]: non-hygroscopic or substantially non-hygroscopic; also recorded: substantially non-hygroscopic
Clinical signs of diseased animals [7]: improved
